Consider one compound from PMC8097418, “In Vitro and In Vivo Antibacterial Activities of a Novel Quinolone Compound, OPS-2071, against Clostridioides difficile” (Antimicrobial Agents and Chemotherapy, 2021).

For data set [1], the system named is 54 clinically isolated C. difficile strains. As to the kind of experiment: MIC by agar dilution against 54 clinically isolated strains. The class given is cell-based, Clostridioides difficile. As for the experimental part: MICs obtained using the agar dilution method were determined visually as described for the CLSI method ([41], [42]). MICs obtained using the broth dilution method were determined visually based on the CLSI method except for using Gifu anaerobic medium (GAM) broth instead of supplemented Brucella broth ([41], [42]).
A general note: Agar dilution tests growth on a series of plates holding different concentrations.

A further data set in a line: in vitro. The note with it: mouse.
Data set [2] can be described thus: Pharmacokinetics in the hamster (cecal contents). As to conditions: male, Syrian, 2 mg/kg oral. The class given is in vivo, male Syrian hamsters. The procedure:
OPS-2071 was orally administered at 2 mg/kg to male Syrian hamsters, and the cecal contents were collected 0.5, 1, 2, 4, 8, 24, 48, and 72 h postdose (n = 5 for each time point). After homogenizing with saline and treatment using acetonitrile-formic acid (100:1 [vol/vol]), the OPS-2071 concentration in cecal contents was determined using a validated liquid chromatography-electrospray ionization-tandem mass spectrometry (LC-ESI-MS/MS) method. The mass spectrometer 4000 QTRAP (AB Sciex Pte. Ltd.) and high-performance liquid chromatography Prominence UFLC system (Shimadzu Corp.) were used. The pharmacokinetic (PK) parameters (Cmax) were determined with WinNonlin professional software version 6.3, (Pharsight Corp.).

For a further data set, the system named is C. difficile ATCC 43255. As to the kind of experiment: MIC against the infection strain. It is filed as cell-based, Clostridioides difficile.
Data set [3] relates to hypervirulent and nonhypervirulent strains of C. difficile (62 strains). Nature of the data set: MIC distribution against 20 hypervirulent and 42 nonhypervirulent strains. It is filed as cell-based, Clostridioides difficile. As to conditions: for MIC50 / MIC90: Clostridioides difficile.
The mark [4] stands for this setting: nonhypervirulent strains (n = 42).

≈ marks a conversion by molar mass, not a printed value.

The MIC50 is an inhibitory concentration at the 50% level, which refers to growth in some studies and to a panel of isolates in others. A higher MIC50 goes with lower susceptibility. In general, MIC90 refers to an inhibitory concentration at the 90% level, which refers to growth in some studies and to a panel of isolates in others. Low values mean greater potency, high ones weaker potency. By IC50 is commonly meant the concentration at which inhibition is half-maximal. Low readings indicate inhibition by little substance, high ones a need for much substance. What is called MIC is the least concentration at which growth counts as inhibited. `Cc1c(-c2cnc(N)c(C#N)c2)c(F)cc2c(=O)c(C(=O)O)cn(C3CC3)c12` [OPS-2071, 7-(6-amino-5-cyanopyridin-3-yl)-1-cyclopropyl-6-fluoro-8-methyl-4-oxo-1,4-dihydroquinoline-3-carboxylic acid]: the “MIC50 fold higher than that of fidaxomicin” value in data set [1] (54 clinical isolates) was found to be 2 fold. In addition, the “MIC50 fold lower than those of vancomycin and metronidazole” value in data set [1] (54 clinical isolates) came out at 16 fold. Besides, the “MIC90 fold lower than that of fidaxomicin” value in data set [1] (54 clinical isolates) is on record as 16 fold. Besides, the “MIC90 fold lower than those of vancomycin and metronidazole” value in data set [1] (54 clinical isolates) amounted to 8 fold. Further, the MIC range in data set [1] (54 clinically isolated C. difficile strains) lay within 0.016 to 1 µg/mL; in data set [3] (hypervirulent strains (n = 20)), 0.03 to 0.25 µg/mL; in data set [3] (setting [4]) it was 0.03 to 0.25 µg/mL. The MIC50 in data set [1] (Clostridioides difficile) turned out to be 0.125 µg/mL (≈ 0.33 µM); in data set [3] (hypervirulent strains (n = 20)), 0.03 µg/mL (≈ 0.0793 µM); in data set [3] (setting [4]), 0.03 µg/mL (≈ 0.0793 µM). Also, the MIC90 in data set [1] (Clostridioides difficile, 54 clinically isolated C. difficile strains) is 0.5 µg/mL (≈ 1.32 µM); in data set [3] (hypervirulent strains (n = 20)) it was 0.25 µg/mL (≈ 0.661 µM); in data set [3] (setting [4]), 0.125 µg/mL (≈ 0.33 µM). The compound further registered an IC50 at 110 min in the data set “in vitro” above 100 µg/mL. The concentration at 24 h in data set [2] (24 h, read-out: concentration in the cecal contents at 24 h postdose) is 1840 ng/g. Also, in data set [2] (reached at 4 h postdose, read-out: maximum concentration (Cmax) in the cecal contents), the Cmax is 43000 ng/g. For the same compound, the MIC with C. difficile ATCC 43255 is 0.016 µg/mL (≈ 0.0423 µM). In addition, the “Cumulative percentage of strains” value was found to be 75% in data set [3] (Hyp (n = 20), MIC 0.063 μg/ml); 100% in data set [3] (Hyp (n = 20), MIC 0.25 μg/ml); 88% in data set [3] (Non-hyp (n = 42), MIC 0.063 μg/ml); 100% in data set [3] (Non-hyp (n = 42), MIC 0.25 μg/ml).
